The source of these data is ChEMBL document CHEMBL4411338, “Convenient framework of poly functionalized (E)-2-benzylideno-(Z)-carbazolylideno cyanoacetamides via rearrangements as an efficient antibiofilm inhibitors with SAR study” (Bioorg Med Chem, 2019).

One series deals with Priestia megaterium. Briefly: Antibiofilm activity against ofloxacin-resistant Bacillus megaterium assessed as disruption of biofilm at 200 ug/ml after 24 hrs by crystal violet staining based ELISA relative to control. Type of series: functional.
The subject of series [1] is Escherichia coli. Briefly: Antibiofilm activity against carbapenem-resistant Escherichia coli assessed as disruption of biofilm at 200 ug/ml after 24 hrs by crystal violet staining based ELISA relative to control. The format is functional.
Another series has as its system Pseudomonas fluorescens. Briefly: Antibiofilm activity against tetracycline-resistant Pseudomonas fluorescens assessed as disruption of biofilm at 200 ug/ml after 24 hrs by crystal violet staining based ELISA relative to control. Type of series: functional.
In series [2] the test system is Klebsiella pneumoniae. Put plainly: Antibiofilm activity against tetracycline-resistant Klebsiella pneumoniae assessed as disruption of biofilm at 200 ug/ml after 24 hrs by crystal violet staining based ELISA relative to control. Type of series: functional.
For a further series, the system named is Bacillus subtilis. Put plainly: Antibiofilm activity against tetracycline-resistant Bacillus subtilis assessed as disruption of biofilm at 200 ug/ml after 24 hrs by crystal violet staining based ELISA relative to control. The format is functional.
Series [3] has as its system Pseudomonas aeruginosa. Put plainly: Antibiofilm activity against carbenicillin-resistant Pseudomonas aeruginosa assessed as disruption of biofilm at 200 ug/ml after 24 hrs by crystal violet staining based ELISA relative to control. The format is functional.
Series [4] relates to Klebsiella pneumoniae. Put plainly: Antibiofilm activity against carbapenem-resistant Klebsiella pneumoniae assessed as disruption of biofilm at 200 ug/ml after 24 hrs by crystal violet staining based ELISA relative to control. The format is functional.
In series [5] the test system is Klebsiella pneumoniae. Briefly: Antibiofilm activity against carbenicillin-resistant Klebsiella pneumoniae assessed as disruption of biofilm at 10 ug/ml by crystal violet/acridine orange staining based fluorescence microscopic analysis. Type of series: functional, organism-based.
The test system of series [6] is Pseudomonas aeruginosa. Put plainly: Antibiofilm activity against carbenicillin-resistant Pseudomonas aeruginosa assessed as disruption of biofilm at 10 ug/ml by crystal violet/acridine orange staining based fluorescence microscopic analysis. The format is functional, organism-based.
Series [7] relates to Klebsiella pneumoniae. Put plainly: Antibiofilm activity against tetracycline-resistant Klebsiella pneumoniae assessed as disruption of biofilm at 10 ug/ml by crystal violet/acridine orange staining based fluorescence microscopic analysis. The format is functional, organism-based.
The subject of series [8] is HEK293. Put plainly: Cytotoxicity against HEK293 cells assessed as reduction in cell viability at >75 ug/ml after 24 hrs by MTT assay. The format is cell-based. The conditions noted are these: human, hek293, 24 h.
The test system of series [9] is Escherichia coli. Put plainly: Reduction in reactive oxygen species level in carbapenem-resistant Escherichia coli biofilm at 10 ug/ml measured after 2 to 6 hrs by DCFH-DA probe based UV-spectrofluorimetric method. The format is functional, organism-based.
Series [10] has as its system Escherichia coli. Briefly: Antibiofilm activity against carbenicillin-resistant Escherichia coli assessed as disruption of biofilm at 10 ug/ml by crystal violet/acridine orange staining based fluorescence microscopic analysis. Type of series: functional, organism-based.
Series [11] concerns Pseudomonas aeruginosa. Briefly: Antibiofilm activity against carbenicillin-resistant Pseudomonas aeruginosa assessed as disruption of biofilm at 100 ug/ml after 24 hrs by crystal violet staining based ELISA relative to control. Type of series: functional.
Series [12] has as its system Escherichia coli. Put plainly: Antibiofilm activity against carbapenem-resistant Escherichia coli biofilm assessed as reactive oxygen species generation at 10 ug/ml after 1 hr by DCFH-DA probe based UV-spectrofluorimetric method relative to control. Type of series: functional.
Series [13] relates to HEK293. Put plainly: Cytotoxicity against HEK293 cells assessed as reduction in cell viability up to 75 ug/ml after 24 hrs by MTT assay. The format is cell-based. The conditions noted are these: human, hek293, 24 h.
For series [14], the system named is Escherichia coli. Put plainly: Antibiofilm activity against carbenicillin-resistant Escherichia coli assessed as disruption of biofilm at 100 ug/ml after 24 hrs by crystal violet staining based ELISA relative to control. Type of series: functional.
Series [15] deals with Klebsiella pneumoniae. Briefly: Antibiofilm activity against carbenicillin-resistant Klebsiella pneumoniae assessed as disruption of biofilm at 200 ug/ml after 24 hrs by crystal violet staining based ELISA relative to control. Type of series: functional.
Series [16] concerns Klebsiella pneumoniae. Put plainly: Antibiofilm activity against tetracycline-resistant Klebsiella pneumoniae assessed as disruption of biofilm at 100 ug/ml after 24 hrs by crystal violet staining based ELISA relative to control. The format is functional.

Activity calls are given as the source filed them. The calls are words filed in the database; no cut-off is given here.

Take `Cc1ccc2c3c([nH]c2c1)C(=C(/C#N)C(N)=O)/C(=C/c1ccccc1)CC3`: the inhibition at 200 µg/mL is 13.1% with Priestia megaterium; 16% with Escherichia coli [1]; 26.4% with Pseudomonas fluorescens; 15.6% in the series with Klebsiella pneumoniae [2]; 45% in the series on Bacillus subtilis; 17% in the series on Pseudomonas aeruginosa [3]. In the series on Klebsiella pneumoniae [4], the inhibition at 200 µg/mL stood at 14%.
As to `Cc1ccc2[nH]c3c(c2c1)CCC(=C\c1ccccc1)/C3=C(\C#N)C(N)=O`, the result in the series on Klebsiella pneumoniae [5], in the series with Pseudomonas aeruginosa [6], in the series on Klebsiella pneumoniae [7], with Escherichia coli [9] and with Escherichia coli [10] was Active. Besides, the inhibition at 200 µg/mL with Priestia megaterium stood at 21.4%; with Escherichia coli [1], 85%; with Pseudomonas fluorescens, 31%; with Klebsiella pneumoniae [2], 71%; in the series with Bacillus subtilis, 23%; in the series on Pseudomonas aeruginosa [3], 81%. The inhibition at 200 µg/mL with Klebsiella pneumoniae [4] worked out at 71%. Moreover, the Activity entry is “Toxic” in the series on HEK293 [8] and “Non-Toxic” in the series on HEK293 [13]. The inhibition at 100 µg/mL in the series on Pseudomonas aeruginosa [11] is 79%; with Escherichia coli [14] it was 89%. Also, the “fold change (FC)” value with Escherichia coli [12] is listed as 2.
With `Cc1ccc2c3c([nH]c2c1)C(=C(/C#N)C(N)=O)/C(=C/c1cccs1)CC3`, the inhibition at 200 µg/mL in the series with Priestia megaterium came out at 15.7%; in the series on Escherichia coli [1] it was 9.8%; with Pseudomonas fluorescens, 28%; in the series on Klebsiella pneumoniae [2], 3.5%; in the series on Bacillus subtilis it was 21%; in the series on Pseudomonas aeruginosa [3] it was 18.9%. For the same molecule, the inhibition at 200 µg/mL in the series with Klebsiella pneumoniae [4] is 18%.
On to `Cc1ccc2[nH]c3c(c2c1)CCC(=C\c1cccc(F)c1)/C3=C(\C#N)C(N)=O`, for which the inhibition at 200 µg/mL in the series with Priestia megaterium came to 21.1%; in the series on Escherichia coli [1], 24.8%; with Pseudomonas fluorescens it was 15%; with Klebsiella pneumoniae [2], 0%; in the series with Bacillus subtilis, 10%; in the series on Pseudomonas aeruginosa [3], 25.3%. For the same molecule, the inhibition at 200 µg/mL in the series with Klebsiella pneumoniae [4] was found to be 29%.
Regarding `O=C(O)c1cn(C2CC2)c2cc(N3CCNCC3)c(F)cc2c1=O` [CIPROFLOXACIN], the inhibition at 200 µg/mL was determined as 56.3% in the series with Priestia megaterium; 45% in the series with Escherichia coli [1]; 38% with Pseudomonas fluorescens; 43% with Klebsiella pneumoniae [2]; 23% in the series with Bacillus subtilis; 49.7% in the series on Pseudomonas aeruginosa [3]. In the series on Klebsiella pneumoniae [4], the inhibition at 200 µg/mL worked out at 25.5%.
`Cc1ccc2[nH]c3c(c2c1)CCC(=C\c1cccc(Br)c1)/C3=C(\C#N)C(N)=O`: the inhibition at 200 µg/mL with Priestia megaterium was 6.3%; in the series on Escherichia coli [1] it was 33.5%; in the series with Pseudomonas fluorescens, 12%; in the series with Klebsiella pneumoniae [2] it was 28.3%; in the series on Bacillus subtilis, 10%; with Pseudomonas aeruginosa [3] it was 13.2%. Also, the inhibition at 200 µg/mL in the series with Klebsiella pneumoniae [4] is 20.7%.
`COc1ccc(/C=C2\CCc3c([nH]c4c(C)cccc34)\C2=C(\C#N)C(N)=O)cc1OC`: the inhibition at 200 µg/mL with Priestia megaterium is 6.1%; in the series on Escherichia coli [1] it was 84.6%; in the series on Pseudomonas fluorescens, 0%; with Klebsiella pneumoniae [2], 23%; with Bacillus subtilis it was 31%; in the series with Pseudomonas aeruginosa [3] it was 12.5%. The inhibition at 200 µg/mL with Klebsiella pneumoniae [4] was found to be 16%.
Consider `COc1ccc(/C=C2\CCc3c([nH]c4cc(C)ccc34)\C2=C(\C#N)C(N)=O)cc1OC`, for which the inhibition at 200 µg/mL in the series with Priestia megaterium worked out at 10.9%; in the series on Escherichia coli [1], 17.2%; in the series with Pseudomonas fluorescens, 5%; with Klebsiella pneumoniae [2], 18.3%; in the series on Bacillus subtilis, 32%; in the series with Pseudomonas aeruginosa [3], 15.3%. Further, the inhibition at 200 µg/mL in the series on Klebsiella pneumoniae [4] worked out at 12%.
As to `COc1ccc(/C=C2\CCc3c([nH]c4ccc(C)cc34)\C2=C(\C#N)C(N)=O)cc1OC`, the inhibition at 200 µg/mL in the series on Priestia megaterium worked out at 17.1%; in the series with Escherichia coli [1], 80%; in the series on Pseudomonas fluorescens, 31%; with Klebsiella pneumoniae [2], 78%; with Bacillus subtilis, 21%; with Klebsiella pneumoniae [15], 82%. In addition, the inhibition at 200 µg/mL in the series with Pseudomonas aeruginosa [3] came to 67%; in the series with Klebsiella pneumoniae [4], 78%. Moreover, the inhibition at 100 µg/mL in the series with Escherichia coli [14] came out at 78%.
Take `Cc1cccc2c3c([nH]c12)C(=C(/C#N)C(N)=O)/C(=C/c1cccs1)CC3`: the inhibition at 200 µg/mL in the series with Priestia megaterium came to 17.6%; in the series with Escherichia coli [1], 22.8%; in the series with Pseudomonas fluorescens, 0%; in the series on Klebsiella pneumoniae [2] it was 27.9%; in the series with Bacillus subtilis, 12%; in the series on Pseudomonas aeruginosa [3] it was 24.1%. Besides, in the series on Klebsiella pneumoniae [4], the inhibition at 200 µg/mL is 12%.
In the case of `Cc1ccc2[nH]c3c(c2c1)CCC(=C\c1ccccn1)/C3=C(\C#N)C(N)=O`, the inhibition at 200 µg/mL stood at 18.2% in the series with Priestia megaterium; 21.7% in the series with Escherichia coli [1]; 29% in the series with Pseudomonas fluorescens; 0% in the series on Klebsiella pneumoniae [2]; 26% in the series on Bacillus subtilis; 17% with Pseudomonas aeruginosa [3]. The inhibition at 200 µg/mL in the series on Klebsiella pneumoniae [4] was determined as 32%.
Take `Cc1ccc2[nH]c3c(c2c1)CCC(=C\c1cccs1)/C3=C(\C#N)C(N)=O`: the inhibition at 200 µg/mL with Priestia megaterium was 4.5%; in the series with Escherichia coli [1] it was 70%; in the series on Pseudomonas fluorescens, 73%; in the series with Klebsiella pneumoniae [2], 81%; in the series with Bacillus subtilis, 28%; in the series with Pseudomonas aeruginosa [3], 29.3%. Also, the inhibition at 200 µg/mL with Klebsiella pneumoniae [4] is 74%. For the same molecule, the inhibition at 100 µg/mL with Klebsiella pneumoniae [16] and in the series on Escherichia coli [14] was 78% each time.
`CCOc1ccc(/C=C2\CCc3c([nH]c4ccc(C)cc34)\C2=C(\C#N)C(N)=O)cc1OCC`: the inhibition at 200 µg/mL in the series with Priestia megaterium was determined as 11.2%; in the series with Escherichia coli [1] it was 27.4%; with Pseudomonas fluorescens it was 18%; in the series on Klebsiella pneumoniae [2] it was 23.3%; in the series with Bacillus subtilis, 8%; in the series with Pseudomonas aeruginosa [3] it was 29.3%. Besides, the inhibition at 200 µg/mL in the series with Klebsiella pneumoniae [4] came to 16%.
Turning to `Cc1ccc2[nH]c3c(c2c1)CCC(=C\c1ccc(F)cc1)/C3=C(\C#N)C(N)=O`, the inhibition at 200 µg/mL in the series on Priestia megaterium came to 32.4%; in the series with Escherichia coli [1], 13.4%; in the series with Pseudomonas fluorescens it was 11%; with Klebsiella pneumoniae [2], 0%; with Bacillus subtilis, 56%; in the series with Pseudomonas aeruginosa [3] it was 19.3%. Also, the inhibition at 200 µg/mL in the series with Klebsiella pneumoniae [4] stood at 17%.
On to `Cc1cccc2c3c([nH]c12)C(=C(/C#N)C(N)=O)/C(=C/c1ccccc1)CC3`, for which the inhibition at 200 µg/mL in the series with Priestia megaterium came out at 31.4%; with Escherichia coli [1], 14.6%; in the series on Pseudomonas fluorescens, 0%; with Klebsiella pneumoniae [2], 1.9%; in the series on Bacillus subtilis, 23%; with Pseudomonas aeruginosa [3] it was 4.3%. For the same molecule, the inhibition at 200 µg/mL in the series on Klebsiella pneumoniae [4] was 21%.
